Test results reported in ChEMBL document CHEMBL5442175, “EUbOPEN Chemogenomics Library - PDSP Secondary Binding” (2024).

Columns and labels:
[1] = biological target: Beta-1 adrenergic receptor (Homo sapiens, UniProt P08588); test: (§1) PDSP Secondary Binding target: ADRB1 - Compounds are tested at 10 uM concentration, plate are incubated at room temperature in the dark for 90 minutes. Reaction are stopped by vacuum filtration onto 0.3% polyethyleneimine soaked filter mats using Filtermate harvester. Scintillation cocktail is then melted onto microwave-dried filters on a hot plate and the radio activity is counted in Microbia counter.
Chain of Beta-1 adrenergic receptor (P08588 whole entry): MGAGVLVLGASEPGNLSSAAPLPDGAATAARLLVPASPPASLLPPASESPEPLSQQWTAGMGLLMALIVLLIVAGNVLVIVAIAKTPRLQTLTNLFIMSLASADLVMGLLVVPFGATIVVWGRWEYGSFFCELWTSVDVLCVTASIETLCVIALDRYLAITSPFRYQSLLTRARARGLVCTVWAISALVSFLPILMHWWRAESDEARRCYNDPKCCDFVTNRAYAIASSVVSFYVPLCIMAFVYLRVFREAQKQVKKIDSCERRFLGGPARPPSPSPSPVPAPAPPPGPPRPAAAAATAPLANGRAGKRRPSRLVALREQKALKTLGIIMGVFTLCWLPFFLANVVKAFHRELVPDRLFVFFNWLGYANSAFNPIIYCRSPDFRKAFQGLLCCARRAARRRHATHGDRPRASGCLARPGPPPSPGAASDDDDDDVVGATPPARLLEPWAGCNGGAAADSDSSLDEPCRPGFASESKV

[2] = biological target: Beta-3 adrenergic receptor (Homo sapiens, UniProt P13945); test: as §1, with “ADRB3” for “ADRB1”
Chain of Beta-3 adrenergic receptor (P13945 whole entry): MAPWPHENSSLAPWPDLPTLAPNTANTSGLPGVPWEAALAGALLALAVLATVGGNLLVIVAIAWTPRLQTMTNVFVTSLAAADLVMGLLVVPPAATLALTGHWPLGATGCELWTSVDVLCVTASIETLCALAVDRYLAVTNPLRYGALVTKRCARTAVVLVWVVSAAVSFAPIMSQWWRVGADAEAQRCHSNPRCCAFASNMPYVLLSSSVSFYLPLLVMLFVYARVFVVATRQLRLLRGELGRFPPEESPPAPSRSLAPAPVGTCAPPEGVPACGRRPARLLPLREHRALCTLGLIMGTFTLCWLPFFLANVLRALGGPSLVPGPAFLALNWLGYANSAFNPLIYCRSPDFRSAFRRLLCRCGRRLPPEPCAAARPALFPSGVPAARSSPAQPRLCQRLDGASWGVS

[3] = biological target: T1, Alpha-2A adrenergic receptor (Homo sapiens, UniProt P08913); test: as §1, with “ADRA2A” for “ADRB1”
T1 sequence (P08913 whole entry): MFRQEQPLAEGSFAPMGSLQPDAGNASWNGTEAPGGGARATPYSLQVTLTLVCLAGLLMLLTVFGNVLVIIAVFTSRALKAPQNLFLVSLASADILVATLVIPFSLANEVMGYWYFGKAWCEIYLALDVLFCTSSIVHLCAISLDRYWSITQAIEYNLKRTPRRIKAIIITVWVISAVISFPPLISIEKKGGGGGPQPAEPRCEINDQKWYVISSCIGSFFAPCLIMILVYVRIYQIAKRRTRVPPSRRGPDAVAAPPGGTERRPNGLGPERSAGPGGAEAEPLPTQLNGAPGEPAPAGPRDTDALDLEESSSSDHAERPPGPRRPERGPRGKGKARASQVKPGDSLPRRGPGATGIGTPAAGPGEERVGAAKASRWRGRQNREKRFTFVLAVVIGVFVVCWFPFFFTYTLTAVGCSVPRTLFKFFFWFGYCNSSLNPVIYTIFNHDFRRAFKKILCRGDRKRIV

[4] = biological target: 5-hydroxytryptamine receptor 5A (Homo sapiens, UniProt P47898); test: as §1, with “HTR5A” for “ADRB1”
[5] = biological target: 5-hydroxytryptamine receptor 1D (Homo sapiens, UniProt P28221); test: as §1, with “HTR1D” for “ADRB1”
Chain of 5-hydroxytryptamine receptor 1D (P28221 whole entry): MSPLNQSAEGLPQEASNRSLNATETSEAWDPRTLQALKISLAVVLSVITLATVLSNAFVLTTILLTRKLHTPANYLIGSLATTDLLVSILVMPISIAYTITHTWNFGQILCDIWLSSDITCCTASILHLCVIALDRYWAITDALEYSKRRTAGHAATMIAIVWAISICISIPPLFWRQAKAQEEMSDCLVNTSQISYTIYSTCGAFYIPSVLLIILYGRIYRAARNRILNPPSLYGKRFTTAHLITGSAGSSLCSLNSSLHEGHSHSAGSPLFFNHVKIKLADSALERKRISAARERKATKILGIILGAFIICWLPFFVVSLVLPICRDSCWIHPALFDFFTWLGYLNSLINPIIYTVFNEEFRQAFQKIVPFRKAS

[6] = biological target: T2, Alpha-1B adrenergic receptor (Homo sapiens, UniProt P35368); test: as §1, with “ADRA1B” for “ADRB1”
T2 sequence (P35368 whole entry): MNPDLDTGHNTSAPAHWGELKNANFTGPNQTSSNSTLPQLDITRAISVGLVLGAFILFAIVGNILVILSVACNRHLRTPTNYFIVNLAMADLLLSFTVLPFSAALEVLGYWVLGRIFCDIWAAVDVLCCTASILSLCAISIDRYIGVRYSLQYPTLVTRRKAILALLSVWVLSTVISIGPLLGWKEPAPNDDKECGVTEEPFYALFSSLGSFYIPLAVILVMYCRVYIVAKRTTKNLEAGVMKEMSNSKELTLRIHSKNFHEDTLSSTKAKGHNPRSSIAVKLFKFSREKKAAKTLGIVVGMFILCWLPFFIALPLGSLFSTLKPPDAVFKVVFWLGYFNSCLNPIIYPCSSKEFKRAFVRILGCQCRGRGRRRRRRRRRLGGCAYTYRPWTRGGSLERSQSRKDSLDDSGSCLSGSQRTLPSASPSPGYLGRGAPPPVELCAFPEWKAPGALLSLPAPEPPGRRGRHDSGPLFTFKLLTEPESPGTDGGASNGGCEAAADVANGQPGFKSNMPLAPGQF

[7] = biological target: Sigma intracellular receptor 2 (Homo sapiens, UniProt Q5BJF2); test: as §1, with “TMEM97” for “ADRB1”
Chain of Sigma intracellular receptor 2 (Q5BJF2 whole entry): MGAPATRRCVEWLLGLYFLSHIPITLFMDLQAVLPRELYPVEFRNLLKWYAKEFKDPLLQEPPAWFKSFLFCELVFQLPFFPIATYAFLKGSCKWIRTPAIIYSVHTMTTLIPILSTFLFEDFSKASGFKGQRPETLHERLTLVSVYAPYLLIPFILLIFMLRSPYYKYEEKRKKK

[8] = biological target: Kappa-type opioid receptor (Homo sapiens, UniProt P41145); test: as §1, with “OPRK1” for “ADRB1”
Chain of Kappa-type opioid receptor (P41145 whole entry): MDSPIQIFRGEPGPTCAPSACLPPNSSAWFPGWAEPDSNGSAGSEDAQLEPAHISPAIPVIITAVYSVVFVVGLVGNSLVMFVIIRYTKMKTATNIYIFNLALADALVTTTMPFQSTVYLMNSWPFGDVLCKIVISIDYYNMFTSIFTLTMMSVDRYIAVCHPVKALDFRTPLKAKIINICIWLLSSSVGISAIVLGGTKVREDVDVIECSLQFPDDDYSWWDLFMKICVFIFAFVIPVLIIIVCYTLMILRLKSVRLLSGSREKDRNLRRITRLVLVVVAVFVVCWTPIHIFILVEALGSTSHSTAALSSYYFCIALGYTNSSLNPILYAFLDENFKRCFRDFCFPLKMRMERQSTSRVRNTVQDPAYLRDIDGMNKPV

[9] = biological target: Sodium-dependent noradrenaline transporter (Homo sapiens, UniProt P23975); test: as §1, with “SLC6A2” for “ADRB1”
Chain of Sodium-dependent noradrenaline transporter (P23975 whole entry): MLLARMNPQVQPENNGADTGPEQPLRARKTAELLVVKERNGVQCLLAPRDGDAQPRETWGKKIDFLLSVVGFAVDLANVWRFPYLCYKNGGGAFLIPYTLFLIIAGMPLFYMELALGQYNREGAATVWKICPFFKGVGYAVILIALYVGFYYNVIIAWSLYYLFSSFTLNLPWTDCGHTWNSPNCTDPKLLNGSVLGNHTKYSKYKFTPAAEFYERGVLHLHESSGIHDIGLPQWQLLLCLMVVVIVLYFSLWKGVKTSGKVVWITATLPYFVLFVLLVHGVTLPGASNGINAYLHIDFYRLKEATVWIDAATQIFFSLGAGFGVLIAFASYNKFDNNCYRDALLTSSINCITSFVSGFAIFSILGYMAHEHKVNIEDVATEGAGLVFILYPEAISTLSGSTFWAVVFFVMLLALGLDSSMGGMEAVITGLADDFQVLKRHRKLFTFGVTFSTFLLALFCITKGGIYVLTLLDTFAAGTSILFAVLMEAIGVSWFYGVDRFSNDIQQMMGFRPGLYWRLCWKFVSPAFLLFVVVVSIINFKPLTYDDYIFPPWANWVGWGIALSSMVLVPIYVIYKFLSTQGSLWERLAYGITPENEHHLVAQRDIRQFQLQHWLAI

[10] = biological target: 5-hydroxytryptamine receptor 2B (Homo sapiens, UniProt P41595); test: as §1, with “HTR2B” for “ADRB1”
Chain of 5-hydroxytryptamine receptor 2B (P41595 whole entry): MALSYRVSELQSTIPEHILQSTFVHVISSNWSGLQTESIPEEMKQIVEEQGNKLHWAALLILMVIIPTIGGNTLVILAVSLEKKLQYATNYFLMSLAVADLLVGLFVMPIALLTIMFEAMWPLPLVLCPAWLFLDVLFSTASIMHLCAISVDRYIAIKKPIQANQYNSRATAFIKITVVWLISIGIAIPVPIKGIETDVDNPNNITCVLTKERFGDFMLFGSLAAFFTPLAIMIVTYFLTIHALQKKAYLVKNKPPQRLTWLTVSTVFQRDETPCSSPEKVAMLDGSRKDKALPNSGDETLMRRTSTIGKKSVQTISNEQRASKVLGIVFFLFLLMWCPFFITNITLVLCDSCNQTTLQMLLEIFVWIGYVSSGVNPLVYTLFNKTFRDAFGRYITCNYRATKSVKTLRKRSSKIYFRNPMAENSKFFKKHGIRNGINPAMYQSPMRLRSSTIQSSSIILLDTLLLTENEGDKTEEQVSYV

[11] = biological target: T3, 5-hydroxytryptamine receptor 2C (Homo sapiens, UniProt P28335); test: as §1, with “HTR2C” for “ADRB1”
T3 sequence (P28335 whole entry): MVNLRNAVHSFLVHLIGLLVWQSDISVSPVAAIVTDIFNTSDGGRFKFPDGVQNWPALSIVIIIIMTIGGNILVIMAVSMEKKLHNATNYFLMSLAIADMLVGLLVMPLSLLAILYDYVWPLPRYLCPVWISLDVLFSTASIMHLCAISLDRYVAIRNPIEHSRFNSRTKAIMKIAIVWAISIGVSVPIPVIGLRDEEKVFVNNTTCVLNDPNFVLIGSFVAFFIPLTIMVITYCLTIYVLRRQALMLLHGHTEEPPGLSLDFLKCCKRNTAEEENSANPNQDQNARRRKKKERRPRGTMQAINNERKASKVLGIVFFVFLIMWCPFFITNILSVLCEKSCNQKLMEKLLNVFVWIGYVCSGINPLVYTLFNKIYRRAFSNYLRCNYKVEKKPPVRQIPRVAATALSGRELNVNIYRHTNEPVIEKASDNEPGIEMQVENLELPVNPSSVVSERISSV

[12] = biological target: Sigma non-opioid intracellular receptor 1 (Homo sapiens, UniProt Q99720); test: as §1, with “SIGMAR1” for “ADRB1”
Chain of Sigma non-opioid intracellular receptor 1 (Q99720 whole entry): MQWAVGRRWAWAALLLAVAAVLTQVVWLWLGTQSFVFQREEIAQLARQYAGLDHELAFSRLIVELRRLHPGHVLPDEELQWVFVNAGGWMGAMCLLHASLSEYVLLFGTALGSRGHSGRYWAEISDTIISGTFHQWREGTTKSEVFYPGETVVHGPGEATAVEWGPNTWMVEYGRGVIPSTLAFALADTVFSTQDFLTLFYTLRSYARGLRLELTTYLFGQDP

Mu-type opioid receptor = Mu-type opioid receptor (Homo sapiens, UniProt P35372); test: as §1, with “OPRM1” for “ADRB1”
Chain of Mu-type opioid receptor (P35372 whole entry): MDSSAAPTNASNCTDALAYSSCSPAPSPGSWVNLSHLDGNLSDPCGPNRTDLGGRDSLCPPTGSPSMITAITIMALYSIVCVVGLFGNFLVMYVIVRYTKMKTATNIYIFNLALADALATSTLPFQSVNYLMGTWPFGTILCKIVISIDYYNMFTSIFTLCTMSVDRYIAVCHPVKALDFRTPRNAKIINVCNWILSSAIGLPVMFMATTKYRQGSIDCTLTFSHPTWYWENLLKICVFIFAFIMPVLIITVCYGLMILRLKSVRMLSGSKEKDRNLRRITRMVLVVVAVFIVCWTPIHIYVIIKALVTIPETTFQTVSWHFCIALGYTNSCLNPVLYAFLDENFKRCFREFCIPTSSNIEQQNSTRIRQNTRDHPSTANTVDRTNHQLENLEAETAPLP

[13] = biological target: T4, 5-hydroxytryptamine receptor 3A (Homo sapiens, UniProt P46098); test: as §1, with “HTR3A” for “ADRB1”
T4 sequence (P46098 whole entry): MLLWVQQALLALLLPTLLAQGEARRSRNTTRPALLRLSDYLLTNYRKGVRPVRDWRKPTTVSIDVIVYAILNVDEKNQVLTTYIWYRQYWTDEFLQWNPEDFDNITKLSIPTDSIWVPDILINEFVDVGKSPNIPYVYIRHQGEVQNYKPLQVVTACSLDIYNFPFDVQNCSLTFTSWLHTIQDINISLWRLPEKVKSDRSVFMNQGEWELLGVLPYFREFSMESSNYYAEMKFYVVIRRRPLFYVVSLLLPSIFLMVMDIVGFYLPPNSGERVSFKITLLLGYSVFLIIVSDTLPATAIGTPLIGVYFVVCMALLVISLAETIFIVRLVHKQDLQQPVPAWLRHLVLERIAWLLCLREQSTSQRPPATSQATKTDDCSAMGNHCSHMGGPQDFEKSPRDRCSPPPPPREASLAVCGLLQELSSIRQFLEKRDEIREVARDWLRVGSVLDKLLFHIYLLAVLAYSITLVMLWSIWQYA

[14] = biological target: Delta-type opioid receptor (Homo sapiens, UniProt P41143); test: as §1, with “OPRD1” for “ADRB1”
Chain of Delta-type opioid receptor (P41143 whole entry): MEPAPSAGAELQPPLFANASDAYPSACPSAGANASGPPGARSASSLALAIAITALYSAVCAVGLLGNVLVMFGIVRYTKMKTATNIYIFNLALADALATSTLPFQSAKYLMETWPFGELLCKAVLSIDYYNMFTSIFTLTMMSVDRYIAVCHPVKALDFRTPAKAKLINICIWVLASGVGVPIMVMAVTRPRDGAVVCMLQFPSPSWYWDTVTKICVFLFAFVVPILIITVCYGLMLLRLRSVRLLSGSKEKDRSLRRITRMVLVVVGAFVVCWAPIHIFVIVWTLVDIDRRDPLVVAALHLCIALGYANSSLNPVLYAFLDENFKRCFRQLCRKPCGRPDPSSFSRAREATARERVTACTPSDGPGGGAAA

Histamine H4 receptor = Histamine H4 receptor (Homo sapiens, UniProt Q9H3N8); test: as §1, with “HRH4” for “ADRB1”
[15] = biological target: T5, Alpha-1D adrenergic receptor (Homo sapiens, UniProt P25100); test: as §1, with “ADRA1D” for “ADRB1”
T5 sequence (P25100 whole entry): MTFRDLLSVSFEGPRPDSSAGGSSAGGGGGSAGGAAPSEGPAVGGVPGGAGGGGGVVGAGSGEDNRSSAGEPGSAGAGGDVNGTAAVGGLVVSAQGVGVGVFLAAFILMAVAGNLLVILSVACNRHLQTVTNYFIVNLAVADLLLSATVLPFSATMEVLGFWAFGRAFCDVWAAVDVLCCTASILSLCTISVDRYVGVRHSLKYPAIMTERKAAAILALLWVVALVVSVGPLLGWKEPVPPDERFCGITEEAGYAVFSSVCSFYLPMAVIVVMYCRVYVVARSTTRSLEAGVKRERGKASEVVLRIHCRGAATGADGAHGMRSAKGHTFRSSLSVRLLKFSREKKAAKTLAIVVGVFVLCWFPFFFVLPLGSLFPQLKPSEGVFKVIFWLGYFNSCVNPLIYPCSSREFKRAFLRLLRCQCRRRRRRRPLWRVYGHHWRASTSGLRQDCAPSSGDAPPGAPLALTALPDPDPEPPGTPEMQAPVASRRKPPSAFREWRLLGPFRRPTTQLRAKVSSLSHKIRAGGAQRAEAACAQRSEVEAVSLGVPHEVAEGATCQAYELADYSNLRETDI

[16] = biological target: 5-hydroxytryptamine receptor 2A (Homo sapiens, UniProt P28223); test: as §1, with “HTR2A” for “ADRB1”
Chain of 5-hydroxytryptamine receptor 2A (P28223 whole entry): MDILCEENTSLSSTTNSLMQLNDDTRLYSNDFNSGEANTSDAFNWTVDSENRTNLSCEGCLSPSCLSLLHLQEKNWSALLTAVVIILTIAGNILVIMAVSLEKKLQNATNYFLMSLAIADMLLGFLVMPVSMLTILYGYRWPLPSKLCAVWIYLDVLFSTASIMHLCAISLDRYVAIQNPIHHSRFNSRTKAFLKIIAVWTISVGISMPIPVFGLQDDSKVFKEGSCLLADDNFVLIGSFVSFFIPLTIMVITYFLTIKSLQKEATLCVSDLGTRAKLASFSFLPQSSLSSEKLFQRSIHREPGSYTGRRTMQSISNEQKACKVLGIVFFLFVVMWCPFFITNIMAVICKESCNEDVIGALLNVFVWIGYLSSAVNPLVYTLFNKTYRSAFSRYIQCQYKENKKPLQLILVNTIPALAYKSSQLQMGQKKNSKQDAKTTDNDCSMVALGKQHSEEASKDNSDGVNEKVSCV

Histamine H1 receptor = Histamine H1 receptor (Homo sapiens, UniProt P35367); test: as §1, with “HRH1” for “ADRB1”
Chain of Histamine H1 receptor (P35367 whole entry): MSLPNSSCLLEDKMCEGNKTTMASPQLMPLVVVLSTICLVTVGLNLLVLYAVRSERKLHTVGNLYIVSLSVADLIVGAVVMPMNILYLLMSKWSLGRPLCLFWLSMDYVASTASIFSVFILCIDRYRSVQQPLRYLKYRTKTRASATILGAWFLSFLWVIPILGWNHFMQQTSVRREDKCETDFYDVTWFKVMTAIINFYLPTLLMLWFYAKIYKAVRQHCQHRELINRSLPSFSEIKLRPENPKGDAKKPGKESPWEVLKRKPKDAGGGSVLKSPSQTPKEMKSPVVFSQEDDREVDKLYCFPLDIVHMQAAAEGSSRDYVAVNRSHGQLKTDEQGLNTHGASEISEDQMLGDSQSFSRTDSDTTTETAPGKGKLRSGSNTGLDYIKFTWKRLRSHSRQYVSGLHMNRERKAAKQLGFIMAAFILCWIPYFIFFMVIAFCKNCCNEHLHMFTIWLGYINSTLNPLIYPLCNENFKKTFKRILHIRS

Ki [1] [nM] | Ki [2] [nM] | Ki [3] [nM] | Ki [4] [nM] | Ki [5] [nM] | Ki [6] [nM] | Ki [7] [nM] | Ki [8] [nM] | Ki [9] [nM] | Ki [10] [nM] | Ki [11] [nM] | Ki [12] [nM] | Ki (Mu-type opioid receptor) [nM] | Ki [13] [nM] | Ki [14] [nM] | Ki (Histamine H4 receptor) [nM] | Ki [15] [nM] | Ki [16] [nM] | Ki (Histamine H1 receptor) [nM] | SMILES
> 10000 | > 10000 | – | – | – | – | – | – | – | – | – | – | – | – | – | – | – | – | – | O=C(Nc1ccc(Cl)cc1)Nc1cccc(-c2cccc(N3CCCC3)n2)c1
4460 | 2100 | 590 | 1910 | 1080 | 2660 | 663 | 898 | 5620 | 804 | 1280 | 598 | 3580 | 988 | – | – | – | – | – | COc1ccc(NS(=O)(=O)c2sc3ccc(Cl)cc3c2C)cc1N1CCNCC1
– | – | – | – | – | – | – | – | – | 280 | – | 463 | – | 352 | > 10000 | 18 | 8030 | 6430 | 1280 | Nc1nc2c(c(N3CCNCC3)n1)CCC1=C2[C@@H]2CCCC[C@@H]2O1
